These results are taken from patent publication US9371265B2, “Compositions and methods related to inhibitors of JAK kinase” (EP PHARMA, INC., priority 2012, dated 2016).

Test [1] has as its target ABL1(E255K)-phosphorylated (Homo sapiens, UniProt P00519, E255K). The test is described as follows: Kinase panel: ABL1(E255K)-phosphorylated. The class given is biochemical. The conditions noted are these: 10 μM EP009. As to the method:
(§1) Achieving JAK3 selectivity remains a significant challenge in the development of new small molecules for the treatment of cancer and immune-derived diseases. As such, the inventors employed cell-based screening assays of small-molecule libraries based upon the chemical scaffold of the established JAK3 inhibitor NC1153 (Stepkowski et al., J Immunol. (2005), 175(7):4236-4246) EP009 (FIG. 2A) was selected as a lead compound due to improved intrinsic stability (>95% purity in various solvents at 37° C. for 24 hours; FIG. 3) and high-degree of JAK3 selectivity. To test JAK3 versus JAK2 specificity of EP009, the IL-2/JAK3-dependent Kit225, and IL-3/JAK2-dependent BaF/3 cell lines were used. Kit225 and BaF/3 cells growing in the presence of IL-2 or IL-3, respectively, were treated with ascending concentrations of EP009 for 12 hours and cellular JAK3 and JAK2 tyrosine phosphorylation levels detected by Western blot analysis (FIGS. 2B and 2C). Following densitometric analysis, EP009 was determined to dose-dependently reduce IL-2-mediated JAK3 tyrosine phosphorylation with a cellular 50% inhibitory concentration (IC50) between 10 and 20 μM (FIG. 2B). […] To globally evaluate specificity, the inhibitory activity of EP009 was measured against a panel of protein kinases distributed throughout the kinome using the scanEDGE profiling service (KINOMEscan). […]

Another test deals with IGF1R (Homo sapiens, UniProt P08069). The test is described as follows: Kinase panel: IGF1R. As to conditions: 10 μM EP009. Type of test: biochemical. The method, then: as §1
Sequence of IGF1R (P08069 31-1367): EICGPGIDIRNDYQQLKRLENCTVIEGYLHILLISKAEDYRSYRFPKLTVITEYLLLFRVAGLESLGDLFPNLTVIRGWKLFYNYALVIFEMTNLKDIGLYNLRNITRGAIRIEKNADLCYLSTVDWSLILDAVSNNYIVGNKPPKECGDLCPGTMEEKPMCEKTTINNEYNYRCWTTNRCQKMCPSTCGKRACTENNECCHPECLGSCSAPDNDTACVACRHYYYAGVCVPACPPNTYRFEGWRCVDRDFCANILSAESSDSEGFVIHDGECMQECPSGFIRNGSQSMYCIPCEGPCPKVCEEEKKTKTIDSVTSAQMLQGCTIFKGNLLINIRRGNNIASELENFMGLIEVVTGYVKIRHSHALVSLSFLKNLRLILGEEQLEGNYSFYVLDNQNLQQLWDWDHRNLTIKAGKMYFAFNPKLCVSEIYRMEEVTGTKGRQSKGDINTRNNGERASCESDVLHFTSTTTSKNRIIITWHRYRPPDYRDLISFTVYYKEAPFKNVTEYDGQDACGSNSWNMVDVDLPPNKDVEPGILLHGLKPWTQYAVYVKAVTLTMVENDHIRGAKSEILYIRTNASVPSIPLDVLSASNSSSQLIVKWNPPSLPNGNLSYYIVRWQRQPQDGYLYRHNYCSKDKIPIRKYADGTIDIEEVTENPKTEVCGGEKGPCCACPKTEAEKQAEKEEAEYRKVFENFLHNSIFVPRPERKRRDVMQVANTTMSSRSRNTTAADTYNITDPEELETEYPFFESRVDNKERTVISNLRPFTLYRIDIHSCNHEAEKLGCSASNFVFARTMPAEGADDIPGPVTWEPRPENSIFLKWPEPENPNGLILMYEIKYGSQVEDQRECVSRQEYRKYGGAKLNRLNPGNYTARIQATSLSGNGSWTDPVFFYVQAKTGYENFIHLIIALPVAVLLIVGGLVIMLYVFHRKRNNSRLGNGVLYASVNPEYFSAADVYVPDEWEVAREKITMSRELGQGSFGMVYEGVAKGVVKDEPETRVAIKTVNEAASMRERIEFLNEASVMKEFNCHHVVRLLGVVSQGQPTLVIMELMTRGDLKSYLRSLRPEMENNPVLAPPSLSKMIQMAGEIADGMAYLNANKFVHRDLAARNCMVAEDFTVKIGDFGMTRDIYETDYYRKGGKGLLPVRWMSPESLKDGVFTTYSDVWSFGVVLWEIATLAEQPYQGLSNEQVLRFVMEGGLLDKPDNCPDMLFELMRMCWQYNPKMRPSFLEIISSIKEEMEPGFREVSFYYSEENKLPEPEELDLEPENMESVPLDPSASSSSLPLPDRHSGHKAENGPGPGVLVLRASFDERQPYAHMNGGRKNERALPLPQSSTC
Another test has as its target SRPK3 (Homo sapiens, UniProt Q9UPE1). The test is described as follows: Kinase panel: SRPK3. The class given is biochemical. The conditions noted are these: 10 μM EP009. The method, then:
as §1

Another test addresses TGFBR1 (Homo sapiens, UniProt P36897). The test is described as follows: Kinase panel: TGFBR1. The class given is biochemical. The conditions noted are these: 10 μM EP009. The method, then:
as §1

Another test has as its target TIE2 (Homo sapiens, UniProt Q02763). The test is described as follows: Kinase panel: TIE2. Type of test: biochemical. As to conditions: 10 μM EP009. The method, then: as §1
Another test concerns the target JAK3 (Homo sapiens, UniProt P52333). The test is described as follows: Constitutive JAK3 tyrosine phosphorylation in SU-DHL-1 cells (IP/Western blot). The class given is cell-based. Also on record: cellular JAK3 and JAK2 tyrosine phosphorylation levels detected by Western blot analysis; endogenous in cells. The conditions noted are these: 20 μM EP009, 12 hours, vs vehicle. An excerpt: FIGS. 6A-6B. EP009 treatment disrupts constitutive JAK3/STAT3 pathway activation and down-regulates CD30 cell surface expression in human ALCL cells. (A) Kit225 (lane a), SUP-M2 (lane b), Karpas299 (lane c), DEL (lane d) and SU-DHL-1 (lane e) total cell lysates were separated by 7.5% SDS-PAGE (upper panel) or were immunoprecipitated (IP) with JAK3 antibodies (lower panel) and separated on 7.5% SDS-PAGE, and then subjected to Western blot (WB) analysis with the indicated antibodies. (B) SU-DHL-1 cells were treated with vehicle (PBS; lane a) or increasing amounts of EP009 (0-40 μM; lanes b-e) for 12 hours. Cells were then lysed, clarified, and immunoprecipitated (IP) with anti-JAK3 (α-JAK3), and subjected to Western blot (WB) analysis with anti-phosphotyrosine (α-pY). Blots were stripped and reprobed with α-JAK3 to verify equivalent protein loading. (C) SU-DHL-1 cells were treated with vehicle (PBS) or increasing amounts of EP009 (0-40 μM) for 12 hours. […] Values represent pSTAT mean fluorescence intensity (MFI) normalized to corresponding GAPDH MFI, while error bars represent the standard deviation (n=2). Statistical significance was determined using Student's t-test. […] Cells were then analyzed by flow cytometry for CD30 expression. […]
(In western blotting, separated proteins are transferred to a membrane and probed.)

Sequence of TGFBR1 (P36897 34-503): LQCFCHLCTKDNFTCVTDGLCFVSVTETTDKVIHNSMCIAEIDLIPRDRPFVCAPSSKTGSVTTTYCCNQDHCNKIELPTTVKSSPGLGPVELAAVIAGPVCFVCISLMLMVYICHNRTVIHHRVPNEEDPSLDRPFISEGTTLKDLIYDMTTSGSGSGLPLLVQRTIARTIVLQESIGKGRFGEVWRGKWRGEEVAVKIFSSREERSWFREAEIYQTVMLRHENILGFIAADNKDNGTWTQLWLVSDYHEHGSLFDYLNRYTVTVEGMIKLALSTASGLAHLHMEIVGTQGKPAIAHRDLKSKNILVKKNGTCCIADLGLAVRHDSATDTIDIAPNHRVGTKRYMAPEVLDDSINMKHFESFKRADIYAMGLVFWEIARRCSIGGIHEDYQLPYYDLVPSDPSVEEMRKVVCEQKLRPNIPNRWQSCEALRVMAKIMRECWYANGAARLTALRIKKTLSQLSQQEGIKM
Sequence of TIE2 (Q02763 23-1124): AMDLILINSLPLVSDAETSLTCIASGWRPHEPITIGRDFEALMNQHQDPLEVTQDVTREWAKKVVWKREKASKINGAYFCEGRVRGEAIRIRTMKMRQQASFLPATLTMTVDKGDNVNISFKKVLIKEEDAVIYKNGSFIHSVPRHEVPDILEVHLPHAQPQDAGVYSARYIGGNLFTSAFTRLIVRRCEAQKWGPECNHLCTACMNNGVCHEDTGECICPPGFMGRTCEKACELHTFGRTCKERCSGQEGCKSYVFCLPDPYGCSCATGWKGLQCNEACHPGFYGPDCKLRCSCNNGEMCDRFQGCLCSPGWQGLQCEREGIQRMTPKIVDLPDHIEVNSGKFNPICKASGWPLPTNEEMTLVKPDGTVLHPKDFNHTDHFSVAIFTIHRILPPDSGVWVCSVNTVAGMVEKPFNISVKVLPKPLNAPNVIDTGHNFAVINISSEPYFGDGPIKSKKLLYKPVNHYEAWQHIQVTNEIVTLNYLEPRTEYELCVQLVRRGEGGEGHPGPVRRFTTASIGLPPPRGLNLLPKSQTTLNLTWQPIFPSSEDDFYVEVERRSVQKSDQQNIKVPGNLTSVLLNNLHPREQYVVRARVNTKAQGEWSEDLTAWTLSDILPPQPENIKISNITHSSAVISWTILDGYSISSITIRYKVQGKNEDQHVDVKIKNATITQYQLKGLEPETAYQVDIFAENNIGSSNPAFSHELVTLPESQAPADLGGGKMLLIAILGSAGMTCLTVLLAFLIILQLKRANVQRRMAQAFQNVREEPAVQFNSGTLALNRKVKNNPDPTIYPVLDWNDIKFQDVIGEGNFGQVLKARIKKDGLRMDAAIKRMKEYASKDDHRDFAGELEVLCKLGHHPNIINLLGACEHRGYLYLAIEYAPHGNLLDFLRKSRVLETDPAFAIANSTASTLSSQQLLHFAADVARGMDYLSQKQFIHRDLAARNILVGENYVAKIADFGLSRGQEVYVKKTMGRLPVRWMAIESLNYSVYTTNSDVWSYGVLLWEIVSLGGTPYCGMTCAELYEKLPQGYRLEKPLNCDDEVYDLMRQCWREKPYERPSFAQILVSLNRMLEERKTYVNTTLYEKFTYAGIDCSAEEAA
Sequence of JAK3 (P52333 whole entry): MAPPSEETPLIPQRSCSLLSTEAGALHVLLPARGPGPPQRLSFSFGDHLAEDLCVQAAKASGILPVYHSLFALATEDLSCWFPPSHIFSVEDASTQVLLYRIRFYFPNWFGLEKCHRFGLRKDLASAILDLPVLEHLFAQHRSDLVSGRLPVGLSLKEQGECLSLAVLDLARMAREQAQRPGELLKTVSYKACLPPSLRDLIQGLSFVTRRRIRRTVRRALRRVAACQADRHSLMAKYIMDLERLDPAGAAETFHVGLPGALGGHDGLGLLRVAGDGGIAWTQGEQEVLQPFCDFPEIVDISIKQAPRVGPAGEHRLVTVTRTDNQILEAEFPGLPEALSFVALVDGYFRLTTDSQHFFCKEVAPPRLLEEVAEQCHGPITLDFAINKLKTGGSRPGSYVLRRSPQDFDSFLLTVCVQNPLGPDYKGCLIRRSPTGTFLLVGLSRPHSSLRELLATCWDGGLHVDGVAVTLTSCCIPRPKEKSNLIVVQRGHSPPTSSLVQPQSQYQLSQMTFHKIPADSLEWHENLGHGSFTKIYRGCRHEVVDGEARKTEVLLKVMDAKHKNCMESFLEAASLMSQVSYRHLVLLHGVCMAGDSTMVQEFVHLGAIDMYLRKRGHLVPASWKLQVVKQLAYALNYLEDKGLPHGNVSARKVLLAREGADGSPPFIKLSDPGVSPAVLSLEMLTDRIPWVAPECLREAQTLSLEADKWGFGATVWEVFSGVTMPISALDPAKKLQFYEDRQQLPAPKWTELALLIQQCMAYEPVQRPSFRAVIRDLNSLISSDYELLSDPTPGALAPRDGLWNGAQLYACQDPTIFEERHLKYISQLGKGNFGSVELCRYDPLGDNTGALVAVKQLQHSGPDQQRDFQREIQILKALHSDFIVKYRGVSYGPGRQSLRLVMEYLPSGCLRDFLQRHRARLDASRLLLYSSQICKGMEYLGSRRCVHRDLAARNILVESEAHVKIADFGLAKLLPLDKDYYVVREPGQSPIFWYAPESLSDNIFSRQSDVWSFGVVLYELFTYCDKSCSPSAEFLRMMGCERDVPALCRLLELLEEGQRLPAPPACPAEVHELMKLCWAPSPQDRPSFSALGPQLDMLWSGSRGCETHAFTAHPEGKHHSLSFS
Sequence of SRPK3 (Q9UPE1 whole entry): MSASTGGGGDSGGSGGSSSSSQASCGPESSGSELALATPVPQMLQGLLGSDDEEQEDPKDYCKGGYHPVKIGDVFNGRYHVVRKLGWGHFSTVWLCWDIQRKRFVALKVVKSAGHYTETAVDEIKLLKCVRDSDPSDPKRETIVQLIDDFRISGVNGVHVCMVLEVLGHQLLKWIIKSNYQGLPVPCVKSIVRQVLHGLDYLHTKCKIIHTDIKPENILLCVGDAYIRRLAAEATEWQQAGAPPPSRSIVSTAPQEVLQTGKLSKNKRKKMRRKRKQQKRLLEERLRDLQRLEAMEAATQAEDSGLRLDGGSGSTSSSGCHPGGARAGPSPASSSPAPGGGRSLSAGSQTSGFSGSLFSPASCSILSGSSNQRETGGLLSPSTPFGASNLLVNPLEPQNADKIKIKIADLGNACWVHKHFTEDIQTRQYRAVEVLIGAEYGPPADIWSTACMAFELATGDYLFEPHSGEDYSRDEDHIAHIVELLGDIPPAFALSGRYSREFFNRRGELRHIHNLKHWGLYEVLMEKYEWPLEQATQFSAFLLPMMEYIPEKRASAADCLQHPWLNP

On to `C=C1CCCCCCCCCC(CO)C1=O` (stereo not drawn) [EP009, 2-(Hydroxymethyl)-12-methylenecyclododecanone], for which the “Kinase Activity (% of Control)” value in test [1] is listed as 64 % of Control; at IGF1R, 100 % of Control; on SRPK3, 100 % of Control; on TGFBR1, 100 % of Control; on TIE2, 90 % of Control. In addition, the “decrease in JAK3 tyrosine phosphorylation levels” value on JAK3 was found to be 70%.
